Source: ChEMBL document CHEMBL1142591, “Scalusamides A-C, new pyrrolidine alkaloids from the marine-derived fungus Penicillium citrinum” (2005)
Values after ≈ are worked out from the molar mass of the structure shown.

Key:
[1] = tested on: Micrococcus luteus; assay: Antibacterial activity against Micrococcus luteus; format: functional
[2] = tested on: Cryptococcus neoformans; assay: Antifungal activity against Cryptococcus neoformans; format: functional

- MIC [1]: 33.3 µg/mL (≈ 118 µM)
- MIC [2]: 16.7 µg/mL (≈ 59.3 µM)
SMILES: C/C=C/CCCCC(=O)C(C)C(=O)N1CCC[C@@H]1CO (some centres not stated) [SCALUSAMIDE A]
